Measured values as given in the supplement of paper PMC10307832.

Assays:
Assay in all cases: relative viability (nuclei count vs DMSO), 5 days (fraction); higher = more cells survive
[1] = compound: CC1=CC(=NN1)NC2=CC(=NC(=N2)/C=C/C3=CC=CC=C3)N4CCN(CC4)C + Nc1ncn([C@H]2C[C@H](O)[C@@H](CO)O2)c(=O)n1 [Decitabine] (partner 2 µM)
In short: (§1)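 Nuclei were stained with Hoechst during a one-step fixation (final 0.05% Triton X-100, 1% formaldehyde, 1 ug/ml Hoechst) carried out 5 days after dosing, then counted on 4× images. The cells, lung cancer lines in 1536-well plates, had been dosed by pin tool the day after seeding with one drug alone or a fixed anchor-drug dose plus five library-drug doses (not always all listed) in √10 steps. Relative viability is the nuclei count in treated wells divided by that in vehicle wells, and each value is the median of duplicate plates.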

Bortezomib + Crizotinib = compound: CC(C)C[C@H](NC(=O)[C@H](Cc1ccccc1)NC(=O)c1cnccn1)B(O)O [Bortezomib] + C[C@@H](Oc1cc(-c2cnn(C3CCNCC3)c2)cnc1N)c1c(Cl)ccc(F)c1Cl [Crizotinib] (partner 1 µM)
In short: as §1

Obatoclax + Bortezomib = compound: COC1=CC(c2cc3ccccc3[nH]2)=N/C1=C\c1[nH]c(C)cc1C [Obatoclax] + CC(C)C[C@H](NC(=O)[C@H](Cc1ccccc1)NC(=O)c1cnccn1)B(O)O [Bortezomib] (partner 0.002 µM)
In short: as §1

Obatoclax + Tozasertib = compound: COC1=CC(c2cc3ccccc3[nH]2)=N/C1=C\c1[nH]c(C)cc1C [Obatoclax] + Cc1cc(Nc2cc(N3CCN(C)CC3)nc(Sc3ccc(NC(=O)C4CC4)cc3)n2)n[nH]1 [Tozasertib] (partner 0.1 µM)
In short: as §1

Row | Cell Line | relative viability ([1]; first compound 0.08 µM) | relative viability ([1]; first compound 0.253 µM) | relative viability ([1]; first compound 0.8 µM) | relative viability ([1]; first compound 2.53 µM) | relative viability ([1]; first compound 8 µM) | relative viability (Bortezomib + Crizotinib; first compound 0.0002 µM) | relative viability (Bortezomib + Crizotinib; first compound 0.000632 µM) | relative viability (Bortezomib + Crizotinib; first compound 0.002 µM) | relative viability (Bortezomib + Crizotinib; first compound 0.006325 µM) | relative viability (Bortezomib + Crizotinib; first compound 0.02 µM) | relative viability (Obatoclax + Bortezomib; first compound 0.01 µM) | relative viability (Obatoclax + Bortezomib; first compound 0.03162 µM) | relative viability (Obatoclax + Bortezomib; first compound 0.1 µM) | relative viability (Obatoclax + Bortezomib; first compound 0.3162 µM) | relative viability (Obatoclax + Bortezomib; first compound 1 µM) | relative viability (Obatoclax + Tozasertib; first compound 0.01 µM) | relative viability (Obatoclax + Tozasertib; first compound 0.03162 µM) | relative viability (Obatoclax + Tozasertib; first compound 0.1 µM) | relative viability (Obatoclax + Tozasertib; first compound 0.3162 µM) | relative viability (Obatoclax + Tozasertib; first compound 1 µM)
1 | HCC-366 | 0.35 | 0.368 | 0.318 | 0.0513 | 0.0463 | 0.522 | 0.682 | 0.598 | 0.275 | 0.0107 | 1.06 | 1 | 1.08 | 0.88 | 1.04 | 0.1 | 0.117 | 0.134 | 0.0528 | 0.0652
2 | NCI-H2405 | 0.758 | 0.618 | 0.687 | 0.615 | 0.171 | 0.88 | 0.83 | 0.834 | 0.24 | 0.15 | 1.01 | 0.852 | – | 0.982 | 1.07 | 0.789 | 0.905 | – | 0.833 | 0.882
3 | Calu-6 | – | – | – | – | – | 0.712 | 0.777 | 0.81 | 0.105 | 0.0708 | 1.03 | 1.02 | 0.979 | 0.955 | 0.191 | – | – | – | – | –
4 | 201T | 0.834 | 0.864 | 0.831 | 0.785 | 0.471 | 0.999 | 1.07 | 1.02 | 1.02 | 0.32 | 1.09 | 1.01 | 1.13 | 1.1 | 1.1 | 0.896 | 0.94 | 0.93 | 0.876 | 1.04
5 | CAL-12T | – | – | – | – | – | 0.888 | 0.551 | 0.61 | 0.241 | 0.1 | 0.969 | 1.02 | 0.915 | 0.697 | 0.567 | 0.389 | 0.326 | 0.36 | 0.153 | 0.0881
6 | HCC-44 | 0.967 | 0.965 | 0.909 | 0.87 | 0.845 | 0.816 | 0.842 | 0.839 | 0.116 | 0.153 | 0.861 | 0.836 | 0.822 | 0.769 | 0.386 | 0.907 | 1.03 | 0.556 | 0.376 | 0.196
7 | NCI-H1944 | 0.4 | 0.485 | 0.478 | 0.351 | 0.252 | 1.06 | 1.04 | 0.899 | 1.21 | 0.142 | – | – | – | – | – | 0.258 | 0.254 | 0.287 | 0.263 | 0.24
8 | SK-MES-1 | 0.402 | 0.379 | 0.331 | 0.187 | 0.11 | 0.967 | 0.994 | 0.935 | 0.261 | 0.161 | – | – | – | – | – | 0.859 | 0.999 | 0.787 | 0.344 | 0.285
9 | NCI-H2087 | 0.294 | 0.193 | 0.265 | 0.0921 | 0.0912 | 0.912 | 0.911 | 0.74 | 0.0857 | 0.072 | 0.645 | 0.775 | 0.665 | 0.779 | 0.335 | 0.248 | 0.239 | 0.229 | 0.206 | 0.161
